Assays:
[1] = system: human esophageal squamous 81T/VGH xenograft tumor; assay: Tumor size in animals grafted with 81T/VGH cancer cells; format: in vivo, Athymic BALB/c-nu nude mice; settings: FIG. 1
Description: For inoculated tumor model, 1×10^5 81T/VGH cells were injected subcutaneously to lab animals to generate s.c. tumors (5×10^5 cells per injection) on day 1. The needle hole was sealed with an electric coagulator (Aaron, Petersburg, Fla., USA) immediately after the withdrawal of the needle to avoid leakage of the injected substance. The incision was subsequently sutured.
Results are depicted in FIGS. 1 to 3, respectively.

[2] = White blood cell counts, liver or kidney function of treated animals; settings: EN 22 25 or 50 mg/Kg, FIG. 3
Description: (§7) Athymic BALB/c-nu nude mice (4 weeks old) were obtained from the National Laboratory Animal Center (Taipei, Taiwan) and were kept in a pathogen-free facility with ad libitum access to water and laboratory chow. A solution of 81T/VGH cells was injected into the subcutaneous tissue to establish a xenograft tumor.
After treatment, mice were sacrificed and their white blood cells (WBC) counts were measured. Tumor burdens were determined by the total volume of all the tumor nodules with diameter greater than 3 mm.
(§8) Mice were inoculated with esophageal squamous tumor cells in accordance with the procedures described above. For in vivo therapy, animals were given 2 mg/Kg cisplatin intraperitoneally, in the presence or absence of 20 mg/Kg EN 22, which was given orally, for a period of at least 4 weeks. Tumor size, body weight, white blood cell count, and liver function of each animal were then measured respectively at the indicated time.

[3] = Body weight of tumor-bearing treated animals; settings: EN 22 alone, FIG. 2
Description: as §7
Tumor sizes were measured using calipers, and tumor volume was calculated using the formula: volume=width^2×length×0.52.
as §8

[4] = system: human esophageal squamous 81T/VGH cells; assay: MTT cell viability, growth inhibition on esophageal squamous cells; format: cell-based; settings: for Inhibition (%): 81T/VGH cells; for ex vivo growth of esophageal cancerous cells inhibited: time not stated
Description: (§1) Cell lines used in the present disclosure include human chronic is myelogenous leukemia (CML) cell line K562, erythroleukemia HEL cells, human pancreatic carcinoma epithelial-like cell line PANC-1, human esophageal squamous cell carcinoma line 81T/VGH, human esophageal adenocarcinoma line BE-3 and human esophageal adenocarcinoma cell line SKGT4. Each cell lines were cultured and maintained in Dulbecco's modified Eagle media (DMEM) supplemented with 10% fetal calf serum, 100 IU/ml penicillin, 100 μg/ml streptomycin, and 2 mM glutamine in 5% CO2 at 37° C.
(§2) The absorbance of the solution at 570 nm was measured by spectrophotometer.
Effects of the compounds of formula (I) of this disclosure, particularly, EN 22, EN 24, and EN 25, on 81T/VGH cells were assessed by cell viability analysis in accordance with procedures described above.

[5] = system: human chronic myelogenous leukemia (CML) K562 cells; assay: MTT cell viability, growth inhibition on chronic myelogenous leukemia cells; format: cell-based; settings: for Inhibition (%): 10 μM, K562 cells; for ex vivo growth of CML cells suppressed: about 10 μM, time not stated
Description: as §1, §2
Effects of the compounds of formula (I) or (II) of this disclosure, particularly, EN 22, EN 26, and EN 28, on K562 cells were assessed by cell viability analysis in accordance with procedures described above.

[6] = system: human erythroleukemia (HEL) cells; assay: In vitro growth inhibition of HEL cells; format: cell-based
Description: as §1, §2

HEL cells [7] = assay: STAT3 RNAi assay, megakaryocytic differentiation after Stat3 knockdown; format: cell-based, human; settings: Stat3 small interference RNA, FIG. 10
Description: The murine stat3 target sequence from positions 134 to 158 (5′-TGGCCCAATGGAATCAGCTACAGCA-3′ (SEQ ID NO: 1)) was selected for the preparation of stat3 siRNA (5′-UGGCCCAAUGGAAUCAGCUACAGCA-3′ (SEQ ID NO: 2)). Scrambled RNAs were employed as a negative control and were synthesized by PCR-derived siRNA expression cassettes according to the manufacturer's instructions and were then cloned into pSEC™ hygro plasmid (Ambion).
[…] HEL cells were transfected with the plasmids (i.e., plasmids containing the nucleic acid for the stat3 siRNA or scramble RNAs) described above with the aid of the lipofectamine 2000 (Invitrogen, Carisbad, Calif. USA). Specifically, 5 μg pSEC™ hygro plasmid contained murine stat3 siNAs and 9 μl lipofectamine 2000 were allowed to form complexes in a period of 25 min at room temperature in antibiotic-free DMEM medium. The complexes were then added to HEL cells maintained and cultured in 6-well dishes and further incubated for another 24 hrs. For the selection of cells with high expression rate of siRNA, stable clones of murine stat3 siRNA expressed cells and negative control siRNA (i.e., scrambled RNA) were selected by use of 500 μg/ml hygromycin contained medium, and the selected clones were maintained in 250 ? μg/ml hygromycin contained medium. […]

K562 cells = assay: Megakaryocyte formation, morphology by Liu's staining, K562; format: cell-based, human; settings: 10 μM, 9 days, FIG. 6
Description: (§3) Cells were transferred to a glass coverslide and covered with solution A (0.5 g of methylene blue and 1.7 g of Eosin yellow dissolved in 1,000 ml of ethanol). After 45 seconds, solution B (1.3 g of azure, 1.4 g of methylene blue, 23.38 g of Na2HPO4, 6.5 g of KH2PO4, dissolved in 1,000 ml of distilled water) was added in the proportion of 2 parts of B to 1 part of A. Mixed the solutions well by blowing the surface. The slide was left standing for 90 seconds and then washed off the staining solution rapidly by running water. The morphology of stained cells was then examined by observation under microscope.
(§4) Megarkaryocytopoiesis is a process by which bone marrow progenitor cells develop into mature megakaryocytes, which in turn produce platelets required for normal hemostasis.

[8] = system: stat3 and phosphorylated stat3; assay: Immunoblot of stat3 and phosphorylated stat3 in HEL cells; format: cell-based, human; settings: compared with control, FIG. 9
Description: (§5) Cultured cells were lysed by use of well known lysing buffer, and total amount of proteins were determined by Bradford method. The extracted raw proteins (about 50-100 μg) were loaded to […] sodium dodecyl sulfate polyacrylamide gel, and proteins therein were separated by electrophoresis. The separated proteins were then transferred to nitrocellulose membrane and non-specific binding was removed by TBST buffer (0.8% NaCl, 0.02% KCl, 25 mM Tris-HCl/pH 8.0 and 0.1% Tween-20) containing 4% skim milk. Antibodies including p-Jak2, Jak2, p-stat3-2, stat3, p-stat5, stat5, and GAPDH (purchased from Transduction Laboratories, Lexington, Ky., USA), were respectively dissolved in TBST buffer containing 2% skim milk and incubated with the separated protein bands at 4° C. for at least over night; followed by incubation with horseradish conjugated secondary antibodies at room temperature for about 30 min, and then detected by ECL chemiluminesance detection kit (Amersham Pharmacia Biotech, US).
(§6) The induction of K562 cells or HEL cells to form megakaryocytes was further investigated by measuring the expressed level of its regulatory proteins such as, stat3 and phosphorylated stat3.

[9] = system: stat3 and phosphorylated stat3; assay: Immunoblot of stat3 and phosphorylated stat3 in K562 cells; format: cell-based, human; settings: compared with control, FIG. 9
Description: as §5, §6

HEL cells [10] = assay: Megakaryocyte formation, morphology by Liu's staining, HEL; format: cell-based, human; settings: 10 μM, 5 days, FIG. 7
Description: as §3, §4

[11] = system: CD61 and CD235a in HEL cells; assay: Flow cytometric analysis of CD61 and CD235a expression; format: cell-based, human; settings: 5 μM
Description: The induction of megakaryocytic differentiation may also be confirmed by the measurement of the differentiation markers CD61 and CD235a expressed on the erythrocyte membrane during the differentiation stage.

normal bone marrow cells = assay: Induction and proliferation of megakaryocytes from normal bone marrow cells; format: cell-based; settings: 1.25 μM, FIG. 12
HEL cells [12] = assay: Cell cycle analysis by flow cytometry; format: cell-based, human; settings: FIG. 8
Description: Cultured cells with or without pre-treatment of the compounds of this invention (i.e., the compound of formula (I) or (II)) were harvested from the cultured media and fixed by incuating with 75% iced cold ethanol at 4° C. for at least over night. The fixed cells were then warmed up to room temperature and treated with RNAase A for about 30 min. Precipitated cells were collected by centrifugation and re-suspended in a buffer solution containing propidium iodine (20 μg/ml) before being subject to flow cytometry analysis, where cell numbers at respective cell cycles were determined.

Row | SMILES | Inhibition (%) ([4]; 1 μM, 24 hrs) | Inhibition (%) ([4]; 1 μM, 48 hrs) | Inhibition (%) ([4]; 10 μM, 24 hrs) | Inhibition (%) ([4]; 10 μM, 48 hrs) | ex vivo growth of esophageal cancerous cells inhibited ([4]; about 1 μM) | ex vivo growth of esophageal cancerous cells inhibited ([4]; about 10 μM) | Inhibition (%) ([5]; 48 hrs) | Inhibition (%) ([5]; 72 hrs) | ex vivo growth of CML cells suppressed [5] | other results
1 | CC1C(O)CCC2C1(C)CCC1C2(C)CCC2(C)C3CC(C)(C)CCC3(C)CCC12C (stereo not drawn) [EN 22, 3β-Friedelinol] | 51.98 | 41.42 | 58.03 | 58.61 | about 50% | about 60% | 39.32 | 45.38 | about 45% | tumor size (growth of tumor) ([1]; EN 22 orally, 20 and 50 mg/Kg): able to suppress the growth of the tumor in a dose dependent manner; white blood cell (WBC) counts [2]: did not affect the number of WBC; body weight loss [3]: free from the “weight lost” problem
2 | CC1(C)CC[C@]2(C)CC=C3[C@]4(C)CC[C@H]5C(C)(C)[C@@H](O)CC[C@]5(C)[C@H]4CC[C@@]3(C)[C@@H]2C1 [EN 24, 3β-Taraxerol] | 49.15 | 43.47 | 63.99 | 57.10 | – | – | – | – | – | –
3 | CC1C(O)CCC2C1(C)CCC1C2(C)CCC2(C)C3CC(C)(C)CCC3(C)CCC12C (stereo not drawn) [EN 25, 3α-Friedelinol] | 49.45 | 39.99 | 61.74 | 62.55 | about 50% | about 60% | – | – | – | –
4 | CC=C(C)C(=O)OC1C(OC(C)=O)C(C)=CC23OC2(CC(C)C3OC(C)=O)C(=O)C(C)C(OC(C)=O)C2C1C2(C)C (centres unmarked) [EN 26, 3,7,12-O-Triacetyl-8-O-tigioylingol] | – | – | – | – | – | – | 30.38 | 42.35 | about 40% | Inhibition (%) ([5]; 24 hrs): 12.74%
5 | CC=C(C)C(=O)OC1C(C)=CC23OC2(CC(C)C3OC(C)=O)C(=O)C(C)C(OC(C)=O)C2C(C1OC)C2(C)C (centres unmarked) [EN 28, 3,12-O-Diacetyl-7-O-angeloyl-8-methoxyingol] | – | – | – | – | – | – | 44.85 | – | about 50% | in vitro growth of HEL cells inhibited ([6]; 5 μM): about 55%; in vitro growth of HEL cells inhibited ([6]; 10 μM): about 60%; in vitro growth of HEL cells inhibited ([6]; about 2.5 μM): about 40%; induction of megakaryocytic differentiation after knockdown of Stat3 (HEL cells [7]): partially reversed; morphology change, formation of megakaryocytes (K562 cells): cells started to fuse and form megakaryocytes; level of phosphorylated stat-3 [8]: increased; level of stat3 [8]: increased; level of phosphorylated stat-3 [9]: increased; level of stat3 [9]: increased; morphology change, differentiation into megakaryocytes (HEL cells [10]): induces the differentiation of HEL cells into megakaryocytes; effect of Stat3 knockdown on CD61 and CD235a changes ([11]; HEL cells with siStat3, FIG. 11): not antagonized; CD61 expression ([11]; HEL cells, FIG. 11): up-regulation; CD235a expression ([11]; HEL cells, FIG. 11): down-regulation; proliferation and differentiation into megakaryocytes (normal bone marrow cells): capable of inducing the proliferation and subsequently, the differentiation of the proliferated normal bone marrow cells into megakaryocytes; cell cycle analysis (HEL cells [12]): capable of inducing the generation of new population of cells
6 | N.N.[Cl][Pt][Cl] [cisplatin, reference compound] | – | – | – | – | – | – | – | – | – | tumor size (growth of tumor) ([1]; cisplatin 2 mg/Kg intraperitoneally): capable of suppressing the growth of tumor during the entire treatment period
